According to BindingDB's records for doi:10.1074/jbc.M608182200 (Johnson & Johnson Pharmaceutical, 2007):

What was measured:
Assay in all cases: cFMs Autophosphorylation Fluorescence Polarization End Point Assay.
Conditions in all cases: pH 7.5; 22 °C
[1] = biological target: T1, Macrophage colony-stimulating factor 1 receptor [538-678,753-922] (Homo sapiens, UniProt P07333)
T1 construct: 538-678,753-922
T1 sequence (P07333 whole entry): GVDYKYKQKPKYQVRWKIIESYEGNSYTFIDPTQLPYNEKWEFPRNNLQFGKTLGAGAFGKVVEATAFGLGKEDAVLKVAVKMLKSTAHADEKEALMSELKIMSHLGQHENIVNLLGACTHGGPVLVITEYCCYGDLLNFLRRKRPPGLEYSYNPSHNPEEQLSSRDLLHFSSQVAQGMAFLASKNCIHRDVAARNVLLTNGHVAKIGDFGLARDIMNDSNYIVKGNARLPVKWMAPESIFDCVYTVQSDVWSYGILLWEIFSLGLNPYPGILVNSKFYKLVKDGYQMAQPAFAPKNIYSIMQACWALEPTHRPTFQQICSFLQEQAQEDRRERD
Procedure: (§1) Control reactions were run in each plate. Assay buffer was substituted for the compound in positive and negative control wells. The fluorescence polarization was measured after 30 min of incubation. […] The IC50 values reported are the averages of three independent measurements.

[2] = biological target: T2, Macrophage colony-stimulating factor 1 receptor [538-678,753-922] (Homo sapiens, UniProt P07333); remark: listed apart in the source
T2 construct: 538-678,753-922
T2 sequence (P07333 whole entry): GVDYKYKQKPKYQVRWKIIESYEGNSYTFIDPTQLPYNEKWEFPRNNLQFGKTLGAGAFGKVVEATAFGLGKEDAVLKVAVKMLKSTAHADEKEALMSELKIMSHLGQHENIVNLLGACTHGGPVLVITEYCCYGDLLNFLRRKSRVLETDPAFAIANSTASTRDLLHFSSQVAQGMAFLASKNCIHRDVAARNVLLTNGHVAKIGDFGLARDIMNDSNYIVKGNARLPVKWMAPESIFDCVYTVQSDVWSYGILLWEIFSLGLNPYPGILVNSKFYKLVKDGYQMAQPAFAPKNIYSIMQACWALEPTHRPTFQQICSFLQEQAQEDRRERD
Procedure: as §1

[3] = biological target: T3, Macrophage colony-stimulating factor 1 receptor [538-972] (UniProt P07333)
T3 construct: 538-972
T3 sequence (P07333 whole entry): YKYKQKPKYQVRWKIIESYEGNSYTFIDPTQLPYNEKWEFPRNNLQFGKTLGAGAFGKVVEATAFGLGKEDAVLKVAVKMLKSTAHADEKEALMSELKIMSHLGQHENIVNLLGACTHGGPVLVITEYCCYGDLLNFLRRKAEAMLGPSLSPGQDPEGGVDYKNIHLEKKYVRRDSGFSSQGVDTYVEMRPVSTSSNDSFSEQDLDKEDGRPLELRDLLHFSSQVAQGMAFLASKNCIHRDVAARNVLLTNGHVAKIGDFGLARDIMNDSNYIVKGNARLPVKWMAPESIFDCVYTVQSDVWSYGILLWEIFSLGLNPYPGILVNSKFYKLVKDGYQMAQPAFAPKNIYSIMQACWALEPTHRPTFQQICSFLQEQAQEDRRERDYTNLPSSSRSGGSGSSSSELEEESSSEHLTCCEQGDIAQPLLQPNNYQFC
Procedure: as §1

| IC50 [1] [µM] | IC50 [2] [µM] | IC50 [3] [µM] | Structure (SMILES) |
| --- | --- | --- | --- |
| 9.4 | 8.3 | 10 | Cc1cc2ncc(-c3ccc(O)c(O)c3)nc2cc1C [2-(3,4-Dihydroxyphenyl)-6,7-dimethylquinoxaline] |
| 4.2 | 4.5 | 4.8 | O=Nc1c(C2C(=O)Nc3ccccc32)[nH]c2ccccc12 (configuration not stated) [Indirubin-3 -monoxime] |
| 1.2 | 1.3 | 1.2 | CN(C)CCNC(=O)N1CCN(Cc2cc(C(F)(F)F)cc(C(F)(F)F)c2)CC1 [JNJ31117164] |

| Structure (SMILES) | IC50 [1] [µM] | IC50 [2] [µM] | IC50 [3] [µM] |
| --- | --- | --- | --- |
| N#C/C(=C\c1ccc(O)c(O)c1)C(N)=S [alpha-Cyano-(3,4-dihydroxy)thiocinnamide] | 3 | 3.3 | 2.9 |
